In patent US20230145666A1, “REAL TIME ELECTRONIC CELL SENSING SYSTEMS AND APPLICATIONS FOR CELL-BASED ASSAYS” (Agilent Technologies, Inc., priority 2002, published 2023):
Where two headings read alike, the source gives them in different places. Values belong to the compound of their own block, whether it stands above or below them.

Key:
Type in all cases: cell-based, rat
[1] = test system: IgE-mediated RBL-2H3 mast cell activation; assay: Cell-substrate impedance assay: pharmacological inhibition of antigen-mediated mast cell activation; settings: at peak response
Method: RBL-2H3 mast cells were sensitized with 100 ng/mL anti-DNP-IgE and then incubated with the indicated concentrations of the Bisindolylmaleimide 1 hour prior to addition of 100 ng/mL DNP-BSA. The impedance value indicated as Cell Index was monitored using a cell-substrate impedance monitoring system of the present invention.
The real-time cell-substrate impedance monitoring system comprises three components, an impedance analyzer, a device station, and one or more 16X microtiter devices. Microelectrode sensor arrays were fabricated on glass slides using lithographical microfabrication methods and the electrode-containing slides were assembled to plastic trays to form 16 electrode-containing wells. The device station of the system receives the 16X microtiter devices and is capable of electronically switching any one of the wells to the sensor (impedance) analyzer for impedance measurement. In operation, the devices with cells cultured in the wells are placed into a device station that is located inside an incubator. Electrical cables connect the device station to the sensor (impedance) analyzer. Under the impedance monitoring system’s software control, the impedance analyzer can automatically select wells to be measured and continuously conduct impedance measurements. The impedance data from the analyzer is transferred to a computer, analyzed and processed by integrated software.
To quantify cell status based on the measured cell-electrode impedance, a parameter termed Cell Index is derived, according to
where Rb (f) and Rcell (f) are the frequency dependent electrode resistances (a component of impedance) without cells or with cell present, respectively. N is the number of the frequency points at which the impedance is measured. Thus, Cell Index is a quantitative measure of the status of the cells in an electrode-containing well. Under the same physiological conditions, more cells attached on to the electrodes leads to larger Rcell (f) value, leading to a larger value for Cell Index. […]
20,000 RBL-2H3 cells were seeded per well of a 16X microtiter device and monitored by the impedance measuring system. […] The cell-electrode impedance was continuously measured and the corresponding, time dependent Cell-Index values were derived and recorded.
RBL-2H3 cells were seeded in a 16X microtiter plate device and pre-stimulated with anti-DNP-IgE were incubated for 1 hour with the indicated doses of the PKC-specific inhibitor Bisindolylmaleimide and subsequently treated with 100 ng/mL DNP-BSA (FIG. 17). The dose-dependent inhibition of RBL-2H3 mast cell activation by Bisindolylmaleimide can be monitored on the cell-substrate monitoring system in real-time. […]

RBL-2H3 mast cells [2] = assay: Fluorescence microscopy of actin cytoskeleton (rhodamine-phalloidin); settings: DNP-BSA cross-linking
Method: FIGS. 15A-B show correlation between cell-electrode impedance response of RBL-2H3 mast cells and cell morphological dynamics and mediator release. (A) RBL-2H3 mast cells were sensitized with 100 ng/mL IgE or treated with a control IgG antibody and subsequently activated with DNP-BSA. The cells were fixed with paraformaldehyde at the indicated time points, permeablized and stained with rhodamine-phalloidin. The cells were visualized and photographed with a Nikon E-400 immunoflourescence microscope equipped with a CCD camera. (B) RBL-2H3 cells were sensitized with IgE, activated by the addition of DNP-BSA.
RBL-2H3 cells were seeded in 16 well Lab-Tec chamber slides and allowed to attach and spread for 6 hours. The cells were stimulated with anti-DNP IgE at a final concentration of 100 ng/mL or a non-specific mouse IgG at 100 ng/mL and then 16 hours later, the media was aspirated, replaced with fresh media and treated with 100 ng/mL DNP-BSA for the indicated time and then fixed with 4 % parafarmaldehyde. The cells were washed 3X with PBS, permeablized in PBS containing 0.2% TX-100 and blocked in PBS containing 0.5 % BSA. The cells were then stained with rhodamine-phalloidin for 30 minutes, washed 3X with PBS and visualized and imaged using the tritc filter on a Nikon E400 epi-fluorescence microscope and Nikon ACT software. […]

RBL-2H3 mast cells [3] = assay: Impedance monitoring of RBL-2H3 mast cell response to IgE and antigen; settings: anti-DNP IgE sensitized, 100 ng/mL DNP-BSA (FIG. 14)
Method: FIG. 13 is a plot of cell index recording indicating mast cell responses to IgE in the presence or absence of antigen. 20,000 RBL-2H3 mast cells were seeded in each well of a 16× device. Cells were allowed to adhere and grow for 22 hours while being recorded. At 22 hours the cells were treated with either 1 microgram/mL non-specific mouse IgG or 1 microgram/mL anti-DNP mouse IgE. The electronic impedance response of the cells were continued to be recorded for an additional 20 hours after which the media in the wells were aspirated and replaced with fresh serum free media. The cells were allowed to recover for 30 minutes and then treated with the 1 microgram/mL of the antigen, DNP-BSA. The electronic impedance response of the cells was measured for an additional 3 hours.
Approximately 14 hours after seeding the cells were incubated with 100 ng/mL anti-DNP IgE followed by application of 100 ng/mL DNP-BSA 24 hours later. Impedance measurements (indicated as Cell Index) were performed at 5 minute intervals post DNP-BSA application.
FIGS. 16A-B show IgE alone-mediated increase in mast cell-electrode impedance response and its effect on antigen-mediated activation step. (A) RBL-2H3 cells seeded on microelectronic sensor arrays were left untreated or treated with indicated concentration of anti-DNP IgE. The impedance value indicated as Cell Index was continuously monitored and recorded using a cell-substrate impedance monitoring system. […] The impedance value indicated as Cell Index was continuously monitored using the system. […]
RBL-2H3 cells were seeded in the 16X device chamber (depicted in FIG. 2) at 20,000 cells/well and the attachment and growth of the cells in the 37° C. tissue culture incubator were monitored in real-time using the cell-substrate monitoring system. […]
20,000 RBL-2H3 cells were seeded per well of a 16X microtiter device and monitored by the impedance measuring system. […] The cell-electrode impedance was continuously measured and the corresponding, time dependent Cell-Index values were derived and recorded. […]

[4] = Rattus norvegicus, RBL-2H3, mast cell activation by impedance, Bisindolylmaleimide N=3, SU6656 N=5, U73122 N=5, Piceatannol N=1, read-out: IC50±SD

IC50 [1, 4]: 1000 nM
Compound: Oc1cc(O)cc(/C=C/c2ccc(O)c(O)c2)c1 [Piceatannol]

IC50 [1, 4]: 5800 ± 3500 nM
Compound: CN(C)S(=O)(=O)c1ccc2c(c1)/C(=C/c1cc3c([nH]1)CCCC3)C(=O)N2 [SU6656]

IC50 ([1]; antigen-mediated RBL-2H3 activation, read-out: IC-50 value): ~1000 nM
IC50 ([1]; mast cell activation by impedance, Bisindolylmaleimide N=3, SU6656 N=5, U73122 N=5, Piceatannol N=1, read-out: IC50±SD): 930 ± 600 nM
Compound: COc1ccc2c(c1)CC[C@@H]1[C@@H]2CC[C@]2(C)[C@@H](NCCCCCCN3C(=O)C=CC3=O)CC[C@@H]12 [U73122]

Compound: DNP-BSA: multi-valent antigen DNP-BSA
time at which extensive ruffling is apparent (RBL-2H3 mast cells [2]; printed as post IgE stimulation): 2.5 min
time of peak cytoskeletal reorganization (RBL-2H3 mast cells [2]; printed as post-IgE stimulation): 30 to 45 min
time of return to baseline (RBL-2H3 mast cells [3]): approximately 2.5 hours
time to detectable impedance increase (RBL-2H3 mast cells [3]): ≤ 5 min
time to maximal impedance increase (RBL-2H3 mast cells [3]): ≤ 30 min
